Source: patent US11078168B2, “Substituted N-hydroxyamidinoheterocycles as modulators of indoleamine 2,3-dioxygenase” (PHENEX DISCOVERY VERWALTUNGS-GMBH, priority 2016, dated 2021)

Target: T1, Indoleamine 2,3-dioxygenase (Homo sapiens, UniProt P14902)
T1 construct: endogenous in cells; host or cells: SKOV-3 (ATCC HTB-77), stimulated with interferon gamma
Experiment: SKOV-3 cellular Indoleamine 2,3-dioxygenase assay
Settings: SKOV-3 cells, 50 ng/ml Interferon gamma, 100 μM L-Tryptophan, 24 hours, N-Formylkynurenin fluorescence detection; read-out: cell based activity
Description: SKOV-3 cellular Indoleamine 2,3-dioxygenase assay
SKOV-3 cells were obtained from the American Type Culture Collection (ATCC® HTB-77™) and maintained in McCoy's medium (Pan Biotech) supplemented with 10% fetal bovine serum and 1% Penicilin/Streptomycin. Cells were kept at 37° C. in a humidified incubator with 5% CO2. For assay preparation, cells were seeded at a density of 2*10^5/ml into black clear bottom 96 well plates in 100 μl medium/well supplemented with 50 ng/ml Interferon gamma (eBioscience, Thermo Fisher Scientific). After cells fully adhered to the plate, dilution series of compounds were added in medium containing additional L-Tryptophan to a final L-Tryptophan concentration of 100 μM. The cells were incubated for 24 hours. Detection of produced N-Formylkynurenin was performed by addition of 3-Methylpiperidine to a final concentration of 200 mM. The plates were sealed and heated to 65° C. for 20 minutes in a water bath. After cooling the fluorescence of each well was recorded with a Victor™X4 (PerkinElmer) plate reader at an emission wavelength of 535 nm and excitation at 405 nm (Tomek et al.; Anal Bioanal Chem (2013) 405:2515-2524., Tomek et al.; Biochim Biophys Acta. 2015 September; 1850(9):1772-80).

T1 sequence (P14902 whole entry): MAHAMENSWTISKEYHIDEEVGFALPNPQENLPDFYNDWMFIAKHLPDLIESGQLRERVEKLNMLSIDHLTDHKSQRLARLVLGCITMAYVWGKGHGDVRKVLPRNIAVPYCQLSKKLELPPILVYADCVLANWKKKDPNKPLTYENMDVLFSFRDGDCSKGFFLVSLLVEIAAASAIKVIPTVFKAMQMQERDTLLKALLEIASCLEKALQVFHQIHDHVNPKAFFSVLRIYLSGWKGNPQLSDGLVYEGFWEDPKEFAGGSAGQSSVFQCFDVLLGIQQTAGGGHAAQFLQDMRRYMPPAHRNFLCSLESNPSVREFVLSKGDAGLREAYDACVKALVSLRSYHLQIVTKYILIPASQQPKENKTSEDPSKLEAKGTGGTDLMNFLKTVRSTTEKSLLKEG

IC50	SMILES
> 1000 nM	O=C(NCCSc1nonc1C(=NO)Nc1ccc(F)c(Cl)c1)c1ccnc2nn[nH]c12 [117/2]
< 100 nM	CS(=O)(=O)NCC(=O)NCCSc1nonc1C(=NO)Nc1ccc(F)c(C(F)F)c1 [128/2]
100 to 1000 nM	Cn1nc(C(=O)NCCSc2nonc2C(=NO)Nc2ccc(F)c(C(F)F)c2)[nH]c1=O [117/17]
100 to 1000 nM	O=C(NCCSc1nonc1C(=NO)Nc1ccc(F)c(Cl)c1)c1nnc(C(F)(F)F)[nH]1 [117/6]
100 to 1000 nM	NC(=O)CCCOc1nonc1C(=NO)Nc1ccc(F)c(Cl)c1 [Example 11, 4-((4-(N-(3-Chloro-4-fluorophenyl)-N′-hydroxycarbamimidoyl)-1,2,5-oxadiazol-3-yl)oxy)butanamide]
< 100 nM	Cc1cccc(NC(=NO)c2nonc2SCCNC(=O)CS(N)(=O)=O)c1 [107/10]
100 to 1000 nM	NS(=O)(=O)NCCOc1nonc1C(=NO)Nc1cccc(C(F)F)c1 [6/3]
> 1000 nM	O=S(=O)(NCCOc1nonc1C(=NO)Nc1ccc(F)c(Cl)c1)C(F)(F)F [1/2]
< 100 nM	O=C(NCCSc1nonc1/C(=N/O)Nc1ccc(F)c(C(F)F)c1)C1CS(=O)(=O)C1 [107/8]
> 1000 nM	[O-][S+](CC(F)(F)F)c1nonc1C(=NO)Nc1ccc(F)c(Br)c1 (stereo not shown) [109/3]
< 100 nM	N#CCC(=O)NCCSc1nonc1/C(=N/O)Nc1ccc(F)c(C(F)F)c1 [107/17]
< 100 nM	NC(=O)NCCOc1nonc1C(=NO)Nc1ccc(F)c(Cl)c1 [Example 5, N-(3-Chloro-4-fluorophenyl)-N′-hydroxy-4-(2-ureidoethoxy)-1,2,5-oxadiazole-3-carboximidamide]
< 100 nM	NS(=O)(=O)CC(=O)NCCSc1nonc1/C(=N/O)Nc1cccc(C(F)(F)F)c1 [117/13]
< 100 nM	NC(=O)CC(=O)NCCSc1nonc1C(=NO)Nc1ccc(F)c(C(F)F)c1 [Example 119]
< 100 nM	O=C(NCCSc1nonc1C(=NO)Nc1ccc(F)c(C(F)(F)F)c1)C1=NOC(C(O)(C(F)(F)F)C(F)(F)F)C1 (stereo not shown) [107/22]
< 100 nM	NC(=O)CC(=O)NCCSc1nonc1C(=NO)Nc1cccc(C(F)F)c1 [119/2]
< 100 nM	ON=C(Nc1ccc(F)c(Br)c1)c1nonc1SCC(F)(F)F [Example 103/2]
> 1000 nM	CC(CNS(N)(=O)=O)Oc1nonc1C(=NO)Nc1ccc(F)c(Cl)c1 (single isomer, unassigned) [Example 16, N-(3-Chloro-4-fluorophenyl)-N′-hydroxy-4-((1-(sulfamoylamino)propan-2-yl)oxy)-1,2,5-oxadiazole-3-carboximidamide]
< 100 nM	NS(=O)(=O)CC(=O)NCCOc1nonc1C(=NO)Nc1ccc(F)c(C(F)(F)F)c1 [9/21]
100 to 1000 nM	O/N=C(\Nc1ccc(F)c(Br)c1)c1nonc1OCC(F)(F)F [8/3, N-(3-Bromo-4-fluorophenyl)-N′-hydroxy-4-(2,2,2-trifluoroethoxy)-1,2,5-oxadiazole-3-carboximidamide]

IC50	SMILES
100 to 1000 nM	N[C@@H](CC(=O)NCCOc1nonc1C(=NO)Nc1ccc(F)c(Cl)c1)C(=O)O [3/1]
< 100 nM	CC(CSc1nonc1C(=NO)Nc1ccc(F)c(C(F)F)c1)NC(=O)CC(N)=O (single isomer, unassigned) [Example 115/1, N^1-(1-((4-(N-(3-(difluoromethyl)-4-fluorophenyl)-N′-hydroxycarbamimidoyl)-1,2,5-oxadiazol-3-yl)thio)propan-2-yl)malonamide]
< 100 nM	O=C(CCCC[C@@H]1SC[C@@H]2NC(=O)N[C@@H]21)NCCSc1nonc1C(=NO)Nc1ccc(F)c(Cl)c1 [107/18]
< 100 nM	CS(=O)(=O)CCC(=O)NCCSc1nonc1C(=NO)Nc1ccc(F)c(C(F)F)c1 [107/38]
100 to 1000 nM	O=C(NCCOc1nonc1C(=NO)Nc1ccc(F)c(Cl)c1)C1(F)CNC1 [3/3]
< 100 nM	NS(=O)(=O)CC(=O)NCCSc1nonc1C(=NO)Nc1cc(F)cc(C(F)F)c1 [107/2]
> 1000 nM	O=C(NCCSc1nonc1C(=NO)Nc1ccc(F)c(Cl)c1)c1ccc(C(=O)O)nc1 [117/5]
> 1000 nM	O=C(NCCOc1nonc1C(=NO)Nc1ccc(F)c(Cl)c1)c1n[nH]c(=O)[nH]1 [9/10]
< 100 nM	N#Cc1ccc(C(=O)NCCSc2nonc2C(=NO)Nc2ccc(F)c(C(F)F)c2)cc1 [107/25]
100 to 1000 nM	O=C(NCCSc1nonc1C(=NO)Nc1ccc(F)c(C(F)F)c1)c1ccc(-n2cnnc2)cc1 [107/26]
100 to 1000 nM	N#CC1(C(=O)NCCSc2nonc2C(=NO)Nc2ccc(F)c(C(F)F)c2)CNC1 [Example 125, 3-Cyano-N-(2-((4-(N-(3-(difluoromethyl)-4-fluorophenyl)-N′-hydroxycarbamimidoyl)-1,2,5-oxadiazol-3-yl)thio)ethyl)azetidine-3-carboxamide]
< 100 nM	O=C(NCCSc1nonc1C(=NO)Nc1ccc(F)c(C(F)F)c1)C1(O)CCC1 [107/7]
< 100 nM	N#Cc1cccc(NC(=NO)c2nonc2SCCNC(=O)CCS(N)(=O)=O)c1 [107/13]
< 100 nM	NS(=O)(=O)c1ccc(C(=O)NCCSc2nonc2C(=NO)Nc2ccc(F)c(Cl)c2)cc1 [117/8]
> 1000 nM	ON=C(Nc1ccc(F)c(Br)c1)c1nonc1OCc1ccccc1 [Example 8, 4-(Benzyloxy)-N-(3-bromo-4-fluorophenyl)-N′-hydroxy-1,2,5-oxadiazole-3-carboximidamide]
< 100 nM	NS(=O)(=O)NCCOc1nonc1/C(=N/O)Nc1ccc(F)c(Cl)c1 [6/1]
< 100 nM	NC(=O)C1(C(=O)NCCOc2nonc2C(=NO)Nc2ccc(F)c(Cl)c2)CC1 [Example 7, N-(2-((4-(N-(3-chloro-4-fluorophenyl)-N′-hydroxycarbamimidoyl)-1,2,5-oxadiazol-3-yl)oxy)ethyl)cyclopropane-1,1-dicarboxamide]
100 to 1000 nM	Nc1c(NCC[S+]([O-])c2nonc2C(=NO)Nc2ccc(F)c(Cl)c2)c(=O)c1=O (stereo not shown) [Example 109, 4-((2-((2-Amino-3,4-dioxocyclobut-1-en-1-yl)amino)ethyl)sulfinyl)-N-(3-chloro-4-fluorophenyl)-N′-hydroxy-1,2,5-oxadiazole-3-carboximidamide]
< 100 nM	CS(=O)(=O)CCS(=O)(=O)NCCSc1nonc1C(=NO)Nc1ccc(F)c(C(F)F)c1 [100/1, N-(3-(Difluoromethyl)-4-fluorophenyl)-N′-hydroxy-4-((2-((2-(methylsulfonyl)ethyl)sulfonamido)ethyl)thio)-1,2,5-oxadiazole-3-carboximidamide]
< 100 nM	COC1(C(=O)NCCSc2nonc2C(=NO)Nc2ccc(F)c(C(F)F)c2)CNC1 [123/2]

IC50	SMILES
> 1000 nM	O=C(O)c1cccc(C(=O)NCCOc2nonc2C(=NO)Nc2ccc(F)c(Cl)c2)c1 [9/13]
100 to 1000 nM	CNC(=O)C(=O)NCCOc1nonc1C(=NO)Nc1ccc(F)c(Cl)c1 [9/17]
100 to 1000 nM	NC(=O)C(=O)NCCOc1nonc1C(=NO)Nc1ccc(F)c(Cl)c1 [Example 4, N^1-(2-((4-(N-(3-Chloro-4-fluorophenyl)-N′-hydroxycarbamimidoyl)-1,2,5-oxadiazol-3-yl)oxy)ethyl)oxalamide]
< 100 nM	CS(=N)(=O)CC(=O)NCCSc1nonc1C(=NO)Nc1cccc(Cl)c1 (stereo not shown) [127/3]
> 1000 nM	NS(=O)(=O)NCC[S+]([O-])c1nonc1C(=NO)Nc1ccc(F)c(Cl)c1 (stereo not shown) [109/1]
> 1000 nM	O=C(CC1SC(=O)NC1=O)NCCOc1nonc1C(=NO)Nc1ccc(F)c(Cl)c1 (stereo not shown) [9/6]
< 100 nM	CS(=N)(=O)CC(=O)NCCSc1nonc1C(=NO)Nc1ccc(F)c(C(F)F)c1 (stereo not shown) [127/1]
< 100 nM	CSc1nonc1/C(=N/O)Nc1ccc(F)c(Br)c1 [Example 103/1, N-(3-bromo-4-fluorophenyl)-N′-hydroxy-4-(methylthio)-1,2,5-oxadiazole-3-carboximidamide]
< 100 nM	O=C(CC(O)(C(F)(F)F)C(F)(F)F)NCCSc1nonc1C(=NO)Nc1ccc(F)c(C(F)(F)F)c1 [107/21]
< 100 nM	Nc1c(NCCOc2nonc2C(=NO)Nc2cccc(C(F)(F)F)c2)c(=O)c1=O [2/6]
100 to 1000 nM	CN(CCOc1nonc1C(=NO)Nc1ccc(F)c(Cl)c1)S(N)(=O)=O [6/4]
< 100 nM	NC(=O)CCC(=O)NCCSc1nonc1C(=NO)Nc1ccc(F)c(C(F)F)c1 [107/37]
< 100 nM	NS(=O)(=O)c1ccc(C(=O)NCCSc2nonc2C(=NO)Nc2cccc(C(F)F)c2)cc1 [117/15]
< 100 nM	NS(=O)(=O)NCCOc1nonc1C(=NO)Nc1ccc(F)c(C(F)F)c1 [6/2]
< 100 nM	CS(=N)(=O)NCCSc1nonc1C(=NO)Nc1ccc(F)c(Cl)c1 (stereo not shown) [Example 120]
100 to 1000 nM	CS(=O)(=O)CCCOc1nonc1C(=NO)Nc1ccc(F)c(Cl)c1 [20/1, N-(3-Chloro-4-fluorophenyl)-N′-hydroxy-4-(3-(methylsulfonyl)propoxy)-1,2,5-oxadiazole-3-carboximidamide]
< 100 nM	CS(=O)(=O)CCC(=O)NCCSc1nonc1C(=NO)Nc1cccc(Br)c1 [107/40]
< 100 nM	Cc1nnc(NCCSc2nonc2C(=NO)Nc2ccc(F)c(C(F)F)c2)o1 [Example 111, N-(3-(Difluoromethyl)-4-fluorophenyl)-N′-hydroxy-4-((2-((5-methyl-1,3,4-oxadiazol-2-yl)amino)ethyl)thio)-1,2,5-oxadiazole-3-carboximidamide]
